Reference: patent US20080009418A1, “Selective Inhibitors” (Alchemia LTD., priority 2004, published 2008)

What was measured:
Conditions in all cases: compound at 10 μM
Human μ-opioid (MOP) = target: T1, Human μ-opioid (MOP) (Homo sapiens, UniProt P35372); assay: Radioligand binding, human μ-opioid (MOP) membranes, FlashPlate, [3H]-Naloxone
T1 construct: purchased Perkin Elmer Biosignal
Summary of the method: (§1)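 Cloned human receptor membranes were coated onto FlashPlate wells and incubated with radioligand and compound (added from a 0.5 mM DMSO daughter plate) for 1 hour at room temperature in the dark. Scintillation counting gave percent inhibition, with DMSO defining total and reference ligand defining non-specific binding.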

Human δ-opioid (DOP) = target: T2, Human δ-opioid (DOP) (Homo sapiens, UniProt P41143); assay: Radioligand binding, human δ-opioid (DOP) membranes, FlashPlate, [3H]-Bremazocine
T2 construct: purchased Perkin Elmer Biosignal
T2 sequence (P41143 whole entry): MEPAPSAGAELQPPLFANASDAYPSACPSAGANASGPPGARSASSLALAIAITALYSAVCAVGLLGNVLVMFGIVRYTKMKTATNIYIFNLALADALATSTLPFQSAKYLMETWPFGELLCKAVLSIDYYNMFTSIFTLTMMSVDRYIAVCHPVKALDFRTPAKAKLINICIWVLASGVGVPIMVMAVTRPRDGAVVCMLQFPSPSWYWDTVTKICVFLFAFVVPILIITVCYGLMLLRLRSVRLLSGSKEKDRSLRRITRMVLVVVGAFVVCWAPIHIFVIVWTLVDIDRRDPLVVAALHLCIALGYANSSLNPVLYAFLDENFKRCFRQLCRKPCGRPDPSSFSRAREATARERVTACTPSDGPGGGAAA
Summary of the method: as §1

Human κ-Opioid (KOP) = target: T3, Human κ-Opioid (KOP) (Homo sapiens, UniProt P41145); assay: Radioligand binding, human κ-opioid (KOP) membranes, filtration, [3H]-Diprenorphine
T3 construct: purchased Perkin Elmer Biosignal
T3 sequence (P41145 whole entry): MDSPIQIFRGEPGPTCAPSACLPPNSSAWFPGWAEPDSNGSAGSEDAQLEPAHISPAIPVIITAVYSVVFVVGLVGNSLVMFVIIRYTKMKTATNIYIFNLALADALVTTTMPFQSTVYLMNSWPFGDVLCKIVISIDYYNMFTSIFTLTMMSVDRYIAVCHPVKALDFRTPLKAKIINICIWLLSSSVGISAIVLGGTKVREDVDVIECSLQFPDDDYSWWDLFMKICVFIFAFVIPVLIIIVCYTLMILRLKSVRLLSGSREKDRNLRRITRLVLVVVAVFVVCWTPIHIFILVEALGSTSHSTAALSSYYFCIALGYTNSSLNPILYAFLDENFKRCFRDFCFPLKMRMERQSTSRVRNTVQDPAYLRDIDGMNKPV
Summary of the method: (§2)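 Membranes from cloned human receptors were incubated with compound and radioligand for 1 hour at room temperature. Bound ligand was collected on 0.3% PEI-soaked filters, washed with cold 50 mM Tris-HCl pH 7.4, and counted by scintillation. Percent inhibition was computed against DMSO totals and reference-ligand nonspecific wells.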

[1] = target: T4, Human melanin-concentrating hormone (MCH1) (Homo sapiens, UniProt Q99705); assay: Radioligand binding, human melanin-concentrating hormone MCH1 membranes, FlashPlate, [125I]-S36057
T4 construct: purchased Perkin Elmer Biosignal
T4 sequence (Q99705 whole entry): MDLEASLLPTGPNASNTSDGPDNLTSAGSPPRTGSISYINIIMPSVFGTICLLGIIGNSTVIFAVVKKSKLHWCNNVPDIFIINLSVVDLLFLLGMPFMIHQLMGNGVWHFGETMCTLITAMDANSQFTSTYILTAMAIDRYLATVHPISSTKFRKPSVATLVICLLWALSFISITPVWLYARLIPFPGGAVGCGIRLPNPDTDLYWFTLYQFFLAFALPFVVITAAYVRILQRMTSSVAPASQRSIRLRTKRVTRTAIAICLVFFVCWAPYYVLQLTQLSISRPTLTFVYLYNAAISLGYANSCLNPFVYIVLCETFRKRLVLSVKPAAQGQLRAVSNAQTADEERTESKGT
Summary of the method: as §1

[2] = target: T5, Human neuropeptide Y (NPY-Y1) (Homo sapiens, UniProt P25929); assay: Radioligand binding, human neuropeptide Y NPY-Y1 membranes, FlashPlate, [125I]-PYY
T5 construct: purchased Perkin Elmer Biosignal
T5 sequence (P25929 1-384): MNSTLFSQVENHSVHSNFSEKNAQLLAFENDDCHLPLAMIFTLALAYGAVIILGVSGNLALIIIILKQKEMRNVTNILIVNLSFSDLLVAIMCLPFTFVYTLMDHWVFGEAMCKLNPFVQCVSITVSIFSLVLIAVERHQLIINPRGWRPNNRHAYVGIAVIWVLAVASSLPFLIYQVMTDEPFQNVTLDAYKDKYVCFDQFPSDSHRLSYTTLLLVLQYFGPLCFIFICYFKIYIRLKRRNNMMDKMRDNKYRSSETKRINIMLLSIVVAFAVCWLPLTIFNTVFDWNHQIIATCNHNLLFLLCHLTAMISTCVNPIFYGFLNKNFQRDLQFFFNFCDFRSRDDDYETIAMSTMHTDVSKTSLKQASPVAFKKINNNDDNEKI
Summary of the method: as §1

Human Melanocortin (MC4) = target: T6, Human Melanocortin (MC4) (Homo sapiens, UniProt P32245); assay: Radioligand binding, human melanocortin MC4 membranes, FlashPlate, [125I]-NDP-αMSH
T6 construct: purchased Perkin Elmer Biosignal
T6 sequence (P32245 whole entry): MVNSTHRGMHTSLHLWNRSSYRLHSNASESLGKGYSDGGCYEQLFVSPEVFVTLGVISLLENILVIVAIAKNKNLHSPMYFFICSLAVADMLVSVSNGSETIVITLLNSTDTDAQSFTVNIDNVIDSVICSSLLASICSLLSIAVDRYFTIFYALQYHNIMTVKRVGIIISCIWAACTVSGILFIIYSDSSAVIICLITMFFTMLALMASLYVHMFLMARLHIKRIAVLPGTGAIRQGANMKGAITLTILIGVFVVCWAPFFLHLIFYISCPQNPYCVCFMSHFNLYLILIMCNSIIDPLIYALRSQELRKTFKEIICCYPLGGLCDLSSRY
Summary of the method: as §1

Human melanocortin (MC5) = target: T7, Human melanocortin (MC5) (Homo sapiens, UniProt P33032); assay: Radioligand binding, human melanocortin MC5 membranes, FlashPlate, [125I]-NDP-αMSH
T7 construct: purchased Perkin Elmer Biosignal
T7 sequence (P33032 whole entry): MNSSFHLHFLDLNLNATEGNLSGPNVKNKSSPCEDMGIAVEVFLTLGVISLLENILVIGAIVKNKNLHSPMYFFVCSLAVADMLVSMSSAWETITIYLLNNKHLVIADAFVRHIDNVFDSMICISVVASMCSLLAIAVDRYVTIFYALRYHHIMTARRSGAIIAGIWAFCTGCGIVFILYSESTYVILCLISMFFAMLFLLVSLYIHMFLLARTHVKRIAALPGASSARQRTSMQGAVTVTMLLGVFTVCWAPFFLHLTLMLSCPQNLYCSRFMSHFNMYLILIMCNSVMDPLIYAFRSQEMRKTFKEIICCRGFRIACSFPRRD
Summary of the method: as §1

Human Melanocortin (MC3) = target: T8, Human Melanocortin (MC3) (Homo sapiens, UniProt P41968); assay: Radioligand binding, human melanocortin MC3 membranes, FlashPlate, [125I]-NDP-αMSH
T8 construct: purchased Perkin Elmer Biosignal
T8 sequence (P41968 whole entry): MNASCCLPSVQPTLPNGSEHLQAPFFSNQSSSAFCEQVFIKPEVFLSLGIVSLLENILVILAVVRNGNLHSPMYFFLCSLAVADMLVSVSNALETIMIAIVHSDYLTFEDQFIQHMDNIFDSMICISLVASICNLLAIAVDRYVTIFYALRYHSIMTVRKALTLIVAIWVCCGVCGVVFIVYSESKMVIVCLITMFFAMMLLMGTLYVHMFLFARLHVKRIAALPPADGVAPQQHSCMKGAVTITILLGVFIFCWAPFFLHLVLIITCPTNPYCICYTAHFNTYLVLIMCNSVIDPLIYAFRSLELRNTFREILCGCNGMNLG
Summary of the method: as §1

Human neurokinin (NK1) = target: T9, Human neurokinin (NK1) (Homo sapiens, UniProt P25103); assay: Radioligand binding, human neurokinin NK1 membranes, filtration, [125I]-Substance P
T9 construct: purchased Perkin Elmer Biosignal
T9 sequence (P25103 whole entry): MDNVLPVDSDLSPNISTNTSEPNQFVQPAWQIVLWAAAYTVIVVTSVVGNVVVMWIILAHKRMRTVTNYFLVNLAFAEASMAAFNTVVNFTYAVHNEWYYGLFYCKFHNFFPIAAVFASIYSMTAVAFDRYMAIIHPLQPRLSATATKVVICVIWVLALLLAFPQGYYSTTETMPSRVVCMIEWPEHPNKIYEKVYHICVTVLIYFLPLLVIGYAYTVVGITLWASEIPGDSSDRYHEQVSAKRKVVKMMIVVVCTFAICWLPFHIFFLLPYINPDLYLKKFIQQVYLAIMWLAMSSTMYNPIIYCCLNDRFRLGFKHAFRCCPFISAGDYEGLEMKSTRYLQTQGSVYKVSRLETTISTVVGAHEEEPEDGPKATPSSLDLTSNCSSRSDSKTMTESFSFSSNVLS
Summary of the method: as §2

Human opioid (ORL1) = target: T10, Human opioid (ORL1) (Homo sapiens, UniProt P41146); assay: Radioligand binding, human opioid ORL1 membranes, FlashPlate, [125I]-Nociceptin
T10 construct: purchased Perkin Elmer Biosignal
T10 sequence (P41146 whole entry): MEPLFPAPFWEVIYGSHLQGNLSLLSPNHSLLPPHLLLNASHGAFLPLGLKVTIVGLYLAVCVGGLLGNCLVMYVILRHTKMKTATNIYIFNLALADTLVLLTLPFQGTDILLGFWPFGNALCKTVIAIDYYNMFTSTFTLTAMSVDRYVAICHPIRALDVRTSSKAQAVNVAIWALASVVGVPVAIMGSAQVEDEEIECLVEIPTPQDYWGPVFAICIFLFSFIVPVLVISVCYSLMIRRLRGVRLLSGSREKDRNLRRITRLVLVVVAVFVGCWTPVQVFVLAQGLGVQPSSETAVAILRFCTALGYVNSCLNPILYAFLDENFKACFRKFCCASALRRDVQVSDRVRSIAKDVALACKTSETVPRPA
Summary of the method: as §1

Mouse urotensin (mUR2) = target: T11, Mouse urotensin (mUR2) (Mus musculus, UniProt Q8VIH9); assay: Radioligand binding, mouse urotensin mUR2 membranes, FlashPlate, [125I]-Urotensin II
T11 construct: purchased Perkin Elmer Biosignal
T11 sequence (Q8VIH9 1-385): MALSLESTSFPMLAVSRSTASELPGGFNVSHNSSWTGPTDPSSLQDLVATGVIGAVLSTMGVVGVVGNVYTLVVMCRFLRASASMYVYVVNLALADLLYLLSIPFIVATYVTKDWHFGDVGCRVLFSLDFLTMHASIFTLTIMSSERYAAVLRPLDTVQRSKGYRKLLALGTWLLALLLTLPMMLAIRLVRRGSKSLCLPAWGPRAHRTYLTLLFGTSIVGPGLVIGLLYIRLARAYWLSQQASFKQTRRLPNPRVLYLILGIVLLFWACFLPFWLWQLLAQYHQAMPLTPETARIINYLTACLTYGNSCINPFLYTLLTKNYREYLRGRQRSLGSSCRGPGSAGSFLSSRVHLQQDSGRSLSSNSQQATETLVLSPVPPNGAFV
Summary of the method: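 Cloned mouse urotensin (mUR2) receptor membranes from Perkin Elmer Biosignal were immobilized in FlashPlate microplates using a proprietary coating. Each well got 19.5 μl buffer, then 0.5 μl of DMSO, reference ligand, or compound. Adding 5 μl of [125I]-Urotensin II, diluted to 5× final concentration in binding buffer, started binding. Plates were sealed with TopSeal-A and incubated 1 hour at room temperature in the dark. Wells were counted for 30 seconds each on a TopCount after a 60-second delay, and percentage inhibition was calculated.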

T1 sequence (P35372 whole entry): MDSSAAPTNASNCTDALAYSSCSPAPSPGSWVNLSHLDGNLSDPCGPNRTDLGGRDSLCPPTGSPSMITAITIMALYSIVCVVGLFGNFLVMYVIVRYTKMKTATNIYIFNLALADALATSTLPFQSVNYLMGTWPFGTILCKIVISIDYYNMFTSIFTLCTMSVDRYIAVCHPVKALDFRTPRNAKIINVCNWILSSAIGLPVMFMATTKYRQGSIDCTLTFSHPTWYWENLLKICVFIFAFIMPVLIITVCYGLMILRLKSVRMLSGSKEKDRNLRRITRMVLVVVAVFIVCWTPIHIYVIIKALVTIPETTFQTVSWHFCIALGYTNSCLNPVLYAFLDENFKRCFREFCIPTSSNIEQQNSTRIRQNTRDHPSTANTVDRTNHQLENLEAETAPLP

Q: What does the source list for NCCCC(=O)NC1C(OCc2ccc3ccccc3c2)OC(COCc2ccc(Cl)cc2)C(O)C1OCc1ccccc1 (stereo not drawn) [compound 398]?
A: A7: inhibition of radioligand binding (Human μ-opioid (MOP); [3H]-Naloxone, human MOP membranes): − (“−” indicates less than 50% inhibition at 10 μM); A1: inhibition of radioligand binding (Human δ-opioid (DOP); [3H]-Bremazocine, human DOP membranes): − (“−” indicates less than 50% inhibition at 10 μM); A2: inhibition of radioligand binding (Human κ-Opioid (KOP); [3H]-Diprenorphine, human KOP membranes): − (“−” indicates less than 50% inhibition at 10 μM); A6: inhibition of radioligand binding ([1]; [125I]-S36057, human MCH1 membranes): − (“−” indicates less than 50% inhibition at 10 μM); A9: inhibition of radioligand binding ([2]; [125I]-PYY, human NPY-Y1 membranes): − (“−” indicates less than 50% inhibition at 10 μM); A4: inhibition of radioligand binding (Human Melanocortin (MC4); [125I]-NDP-αMSH, human MC4 membranes, 10 µM): + (“+” indicates greater than 50% inhibition at 10 μM); A5: inhibition of radioligand binding (Human melanocortin (MC5); [125I]-NDP-αMSH, human MC5 membranes): + (“+” indicates greater than 50% inhibition at 10 μM); A3: inhibition of radioligand binding (Human Melanocortin (MC3); [125I]-NDP-αMSH, human MC3 membranes, 10 µM): + (“+” indicates greater than 50% inhibition at 10 μM); A8: inhibition of radioligand binding (Human neurokinin (NK1); [125I]-Substance P, human NK1 membranes): + (“+” indicates greater than 50% inhibition at 10 μM); A10: inhibition of radioligand binding (Human opioid (ORL1); [125I]-Nociceptin, human ORL1 membranes, 10 µM): − (“−” indicates less than 50% inhibition at 10 μM); A11: inhibition of radioligand binding (Mouse urotensin (mUR2); [125I]-Urotensin II, mouse mUR2 membranes): − (“−” indicates less than 50% inhibition at 10 μM)

Q: How did the “A7 radioligand binding inhibition” value (Human μ-opioid (MOP); human μ-opioid (MOP) membranes) turn out when CO[C@H]1[C@H](O)[C@@H](COCc2ccc3ccccc3c2)OC(OCc2ccccc2)[C@@H]1NC(=O)CCCN (stereo partly drawn) [compound 88] was run?
A: − (“−” indicates less than 50% inhibition at 10 μM)

Q: And the “A1 radioligand binding inhibition” value (Human δ-opioid (DOP); human δ-opioid (DOP) membranes)?
A: − (“−” indicates less than 50% inhibition at 10 μM)

Q: And the “A2 radioligand binding inhibition” value (Human κ-Opioid (KOP); human κ-opioid (KOP) membranes)?
A: − (“−” indicates less than 50% inhibition at 10 μM)

Q: What about the “A6 radioligand binding inhibition” value ([1]; human MCH1 membranes) of the same compound?
A: − (“−” indicates less than 50% inhibition at 10 μM)

Q: And the “A9 radioligand binding inhibition” value ([2]; human NPY-Y1 membranes)?
A: − (“−” indicates less than 50% inhibition at 10 μM)

Q: And the “A4 radioligand binding inhibition” value (Human Melanocortin (MC4); human melanocortin MC4 membranes)?
A: − (“−” indicates less than 50% inhibition at 10 μM)

Q: And the “A5 radioligand binding inhibition” value (Human melanocortin (MC5); human melanocortin MC5 membranes)?
A: − (“−” indicates less than 50% inhibition at 10 μM)

Q: What about the “A3 radioligand binding inhibition” value (Human Melanocortin (MC3); human melanocortin MC3 membranes) of the same compound?
A: − (“−” indicates less than 50% inhibition at 10 μM)

Q: What about the “A8 radioligand binding inhibition” value (Human neurokinin (NK1); human neurokinin NK1 membranes) of the same compound?
A: + (“+” indicates greater than 50% inhibition at 10 μM)

Q: And the “A10 radioligand binding inhibition” value (Human opioid (ORL1); human ORL1 membranes)?
A: − (“−” indicates less than 50% inhibition at 10 μM)

Q: And the “A11 radioligand binding inhibition” value (Mouse urotensin (mUR2); mouse urotensin mUR2 membranes)?
A: − (“−” indicates less than 50% inhibition at 10 μM)

Q: Which results are given for N=C(N)NCCC(=O)N[C@H]1C(OCc2ccc(Cl)cc2)O[C@H](COCc2ccc(Cl)cc2)[C@@H](O)[C@@H]1OCc1ccc(Cl)cc1 (stereo partly drawn) [compound 527]?
A: A7: inhibition of radioligand binding, human μ-opioid (MOP) (Human μ-opioid (MOP); [3H]-Naloxone): − (“−” indicates less than 50% inhibition at 10 μM); A1: inhibition of radioligand binding, human δ-opioid (DOP) (Human δ-opioid (DOP); [3H]-Bremazocine): − (“−” indicates less than 50% inhibition at 10 μM); A2: inhibition of radioligand binding, human κ-opioid (KOP) (Human κ-Opioid (KOP); [3H]-Diprenorphine, 10 µM): + (“+” indicates greater than 50% inhibition at 10 μM); A6: inhibition of radioligand binding, human melanin-concentrating hormone (MCH1) ([1]; [125I]-S36057): + (“+” indicates greater than 50% inhibition at 10 μM); A9: inhibition of radioligand binding, human neuropeptide Y (NPY-Y1) ([2]; [125I]-PYY): − (“−” indicates less than 50% inhibition at 10 μM); A4: inhibition of radioligand binding, human melanocortin (MC4) (Human Melanocortin (MC4); [125I]-NDP-αMSH, 10 µM): + (“+” indicates greater than 50% inhibition at 10 μM); A5: inhibition of radioligand binding, human melanocortin (MC5) (Human melanocortin (MC5); [125I]-NDP-αMSH): + (“+” indicates greater than 50% inhibition at 10 μM); A3: inhibition of radioligand binding, human melanocortin (MC3) (Human Melanocortin (MC3); [125I]-NDP-αMSH, 10 µM): + (“+” indicates greater than 50% inhibition at 10 μM); A8: inhibition of radioligand binding, human neurokinin (NK1) (Human neurokinin (NK1); [125I]-Substance P): + (“+” indicates greater than 50% inhibition at 10 μM); A10: inhibition of radioligand binding, human opioid (ORL1) (Human opioid (ORL1); [125I]-Nociceptin): − (“−” indicates less than 50% inhibition at 10 μM); A11: inhibition of radioligand binding, mouse urotensin (mUR2) (Mouse urotensin (mUR2); [125I]-Urotensin II): − (“−” indicates less than 50% inhibition at 10 μM)
